Assay results published in publication PMC10058894, “Bioactive C21 Steroidal Glycosides from Euphorbia kansui Promoted HepG2 Cell Apoptosis via the Degradation of ATP1A1 and Inhibited Macrophage Polarization under Co-Cultivation” (Molecules, 2023).

Experiments:
[1] = tested on: ATP1A1-related AKT and ERK signaling pathways; test: Western blot of AKT and ERK phosphorylation in HepG2 cells; format: cell-based; conditions: 5 at 25 μmol∙L−1, 0~60 min, digitonin 10 nmol∙L−1
Description: An Na^+/K^+-ATPase inhibitor (digitonin), AKT inhibitor (MK 2206), and ERK inhibitor (FR 180204) were purchased from Biotech (Beijing, China). These agents were stored at −20 °C, and the cells were preincubated with the inhibitor for 4 h prior to treatment with the compounds. Digitonin, MK 2206, and FR 180204 were used at concentrations of 10, 40, and 200 nmol/L, respectively.
Protein samples were prepared using a RIPA lysis buffer. The concentration of the protein was analyzed using a nucleic acid and protein microanalyzer (Molecular Devices, San Jose, CA, USA). SDS–PAGE was performed to separate the proteins, which were then electrotransferred onto a PVDF membrane. The membrane was incubated with antibodies at 4 °C overnight. Next, the membrane was washed and incubated with an HRP-conjugated secondary antibody (Beyotime, BeiJing, China). Finally, signals were detected by the ECL method (Beyotime, BeiJing, China) and analyzed using ImageJ software.

HepG2 cells = test: MTT assay, cell viability of HepG2 cells; format: cell-based; conditions: Homo sapiens, HepG2, 48 h
Description: HepG2 cells (1 × 10^4 cells/well) or RAW264.7 cells ([…]) were incubated in 96T wells for 24 h. Then, HepG2 cells were treated with compounds or Adriamycin for 48 h. In addition, RAW264.7 cells were treated with compounds for 24 h. Then, 0.5% MTT (Sigma, Saint Louis, MO, USA) was added to 20 μL/well for 3.5 h. The supernatant was discarded, and DMSO (150 μL/well) was added to dissolve the purple formazan. Cells were agitated for 15 min at room temperature, and the absorbance at 490 nm was recorded by SpetraMax M2 (Molecular Devices, San Jose, CA, USA).

SMILES: C[C@H](O)[C@]1(O)CC[C@@]2(O)[C@]1(C)[C@H](OC(=O)/C=C/c1ccccc1)C[C@@H]1[C@@]3(C)CC[C@H](O[C@H]4C[C@H](O)[C@H](O)[C@@H](C)O4)CC3=CC[C@]12O [Compound 5, Cynsaccatol L]
- phosphorylation of AKT and ERK and expression of ATP1A1 [1]: all decreased
- IC50 (HepG2 cells): 12.6 ± 2.13 µM
